Test results from the supplement of paper PMC10307832.

Key:
BI-D1870 + Foretinib = compound: CC(C)CCN1c2nc(Nc3cc(F)c(O)c(F)c3)ncc2N(C)C(=O)C1C [BI-D1870] + COc1cc2c(Oc3ccc(NC(=O)C4(C(=O)Nc5ccc(F)cc5)CC4)cc3F)ccnc2cc1OCCCN1CCOCC1 [Foretinib] (partner 0.25 µM); assay: relative viability (nuclei count vs DMSO), 5 days (fraction); higher = more cells survive
Procedure, shortened: (§1)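 Cells from lung cancer lines were seeded into 1536-well plates and, one day later, dosed by pin tool. Treatments were either a single drug or a fixed dose of an anchor drug with five library-drug doses (not always all listed) in √10 steps. After 5 days, nuclei were stained in a one-step fixation (final 0.05% Triton X-100, 1% formaldehyde, 1 ug/ml Hoechst) and counted on 4× images, and relative viability is the treated-to-vehicle nuclei ratio, as the median of duplicate plates.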

Zebularine + Tozasertib = compound: O=c1ncccn1[C@@H]1O[C@H](CO)[C@@H](O)[C@H]1O [Zebularine] + Cc1cc(Nc2cc(N3CCN(C)CC3)nc(Sc3ccc(NC(=O)C4CC4)cc3)n2)n[nH]1 [Tozasertib] (partner 0.1 µM); assay: as above
Procedure, shortened: as §1

Cell Line	relative viability (BI-D1870 + Foretinib; first compound 0.04 µM)	relative viability (BI-D1870 + Foretinib; first compound 0.1265 µM)	relative viability (BI-D1870 + Foretinib; first compound 0.4 µM)	relative viability (BI-D1870 + Foretinib; first compound 1.265 µM)	relative viability (BI-D1870 + Foretinib; first compound 4 µM)	relative viability (Zebularine + Tozasertib; first compound 1 µM)	relative viability (Zebularine + Tozasertib; first compound 3.162 µM)	relative viability (Zebularine + Tozasertib; first compound 10 µM)	relative viability (Zebularine + Tozasertib; first compound 31.62 µM)	relative viability (Zebularine + Tozasertib; first compound 100 µM)
NCI-H1975	0.996	0.849	0.884	0.912	0.847	1.11	0.684	0.412	0.293	0.23
CAL-12T	1.29	0.831	1.11	1.23	0.889	0.379	0.369	0.241	0.379	0.247
NCI-H1623	0.913	0.843	0.801	0.903	0.794	0.513	0.437	0.39	0.535	0.389
HCC-44	–	–	–	–	–	1.14	1.05	0.82	0.418	0.361
EKVX	1.3	0.593	0.619	0.935	0.371	0.44	0.409	0.3	0.374	0.335
NCI-H1651	0.921	0.807	0.882	0.771	0.356	0.869	0.679	0.389	0.623	0.455
NCI-H1944	0.992	0.799	0.848	1.04	0.973	0.274	0.268	0.213	0.254	0.234
NCI-H1703	0.381	–	0.295	0.355	0.385	–	–	–	–	–
Calu-6	0.929	0.789	0.87	0.774	0.561	–	–	–	–	–
EBC-1	0.103	0.119	0.105	0.136	0.0927	–	–	–	–	–
SW 1573	0.958	0.783	0.853	0.937	0.881	0.223	0.163	–	0.137	0.148
A-427	1.14	0.895	0.991	1.11	1.13	0.201	0.194	0.222	0.155	0.152
NCI-H2347	0.977	0.993	0.903	0.723	0.863	0.632	0.482	0.51	0.405	0.309
NCI-H1355	1.05	0.863	0.91	1.07	0.967	0.56	0.516	0.484	0.328	0.34
NCI-H358	0.657	0.529	0.669	0.752	0.433	0.111	0.101	0.0883	0.108	0.0887
PC-3 [JPC-3]	0.999	1.01	1.02	1.06	0.961	0.963	0.924	0.485	0.668	0.473
NCI-H2228	1.03	0.806	0.941	0.821	0.647	0.289	0.168	0.229	0.246	0.195
HOP-62	1.27	1.03	1.07	1.06	0.924	0.503	0.396	0.212	0.154	0.167

Cell Line	relative viability (BI-D1870 + Foretinib; first compound 0.04 µM)	relative viability (BI-D1870 + Foretinib; first compound 0.1265 µM)	relative viability (BI-D1870 + Foretinib; first compound 0.4 µM)	relative viability (BI-D1870 + Foretinib; first compound 1.265 µM)	relative viability (BI-D1870 + Foretinib; first compound 4 µM)	relative viability (Zebularine + Tozasertib; first compound 1 µM)	relative viability (Zebularine + Tozasertib; first compound 3.162 µM)	relative viability (Zebularine + Tozasertib; first compound 10 µM)	relative viability (Zebularine + Tozasertib; first compound 31.62 µM)	relative viability (Zebularine + Tozasertib; first compound 100 µM)
HARA	0.872	0.855	0.867	0.819	1.02	0.105	–	–	0.0886	0.0769
NCI-H838	1.12	1.01	1.05	1.16	1.15	0.251	0.304	0.239	0.216	0.163
NCI-H1755	0.908	0.865	0.882	1.03	0.884	0.639	0.531	0.512	0.663	0.488
HCC-78	0.599	0.522	0.529	0.592	0.481	0.423	0.429	0.219	0.278	0.259
IA-LM	1.24	1.07	1.32	1.03	0.977	–	–	–	–	–
NCI-H322M	1.06	0.805	0.868	0.87	0.696	0.494	0.486	0.372	0.47	0.465
NCI-H3122	0.898	0.942	0.96	0.974	0.889	0.391	0.401	0.262	0.626	0.375
COR-L23	1.01	0.894	0.938	1.01	0.905	0.216	0.263	0.186	0.181	0.119
NCI-H2087	1.16	1.23	1.27	1.12	0.982	0.255	0.338	0.215	0.225	0.155
LC-2-ad	1.01	0.932	0.946	0.975	0.626	0.413	0.427	0.347	0.422	0.396
NCI-H1915	1.12	1.01	1.08	1.06	0.99	0.558	0.44	–	0.533	0.385
NCI-H1793	0.72	0.561	0.63	0.737	0.943	0.401	0.354	–	0.206	0.174
NCI-H2023	0.919	0.635	0.823	0.851	0.945	0.462	0.319	0.242	0.283	0.169
COR-L 105	1.29	1.12	1.1	1.47	1.12	0.316	0.285	0.345	0.367	0.319
RERF-LC-KJ	0.885	0.842	0.878	0.846	0.909	0.533	0.433	0.458	0.553	0.473
LXF-289	1.01	0.942	0.956	0.941	0.88	0.19	0.169	0.124	0.0978	0.116
PC-14	0.936	0.865	0.908	0.952	0.945	0.479	0.513	0.1	0.0922	0.0781
